The record followed here is publication PMC4780679 (Inorganic chemistry, 2015).

In this experiment the target is HydG (So HydG, WT HydG) (Shewanella oneidensis, UniProt Q8EAH9). The experiment is described as follows: X-band CW EPR of the [4Fe-4S]RS cluster. Conditions: pH 7.5, 10 K; [4Fe-4S]RS cluster site. It counts as binding.

`C[S+](CC[C@H](N)C(=O)O)C[C@H]1O[C@@H](n2cnc3c(N)ncnc32)[C@H](O)[C@@H]1O` (stereo partly drawn) [SAM, S-adenosyl-L-methionine]: the “X-band CW EPR of the [4Fe-4S]RS cluster” value was “interaction between the HydG [4Fe–4S]RS cluster and the substrates, Tyr or SAM”.
